Source: PMC2699545 (Molecular genetics and metabolism, 2009)

Key:
N370S GCase [1] = molecular target: T1, N370S GCase (Homo sapiens, UniProt P04062, N409S); assay: GCase inhibition by active site-directed inhibitors, 4MU-Glc substrate; type: biochemical
T1 sequence (P04062 40-536 N409S): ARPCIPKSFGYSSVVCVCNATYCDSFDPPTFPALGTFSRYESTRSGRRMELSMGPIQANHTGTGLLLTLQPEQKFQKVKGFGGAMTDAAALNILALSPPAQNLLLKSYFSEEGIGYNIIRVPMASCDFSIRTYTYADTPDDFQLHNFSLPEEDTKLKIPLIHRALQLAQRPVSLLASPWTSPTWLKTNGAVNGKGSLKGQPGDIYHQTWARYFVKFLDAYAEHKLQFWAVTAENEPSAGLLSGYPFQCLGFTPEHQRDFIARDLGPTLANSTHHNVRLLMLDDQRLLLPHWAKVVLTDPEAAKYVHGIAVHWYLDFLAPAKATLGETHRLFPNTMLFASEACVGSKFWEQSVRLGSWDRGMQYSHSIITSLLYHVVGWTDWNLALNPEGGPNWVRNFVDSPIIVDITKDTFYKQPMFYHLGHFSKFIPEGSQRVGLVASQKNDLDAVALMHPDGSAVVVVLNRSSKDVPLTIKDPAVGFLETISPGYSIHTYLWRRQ

N370D GCase [2] = molecular target: T2, N370D GCase (Homo sapiens, UniProt P04062, N409D); assay: as above; type: biochemical
T2 sequence (P04062 40-536 N409D): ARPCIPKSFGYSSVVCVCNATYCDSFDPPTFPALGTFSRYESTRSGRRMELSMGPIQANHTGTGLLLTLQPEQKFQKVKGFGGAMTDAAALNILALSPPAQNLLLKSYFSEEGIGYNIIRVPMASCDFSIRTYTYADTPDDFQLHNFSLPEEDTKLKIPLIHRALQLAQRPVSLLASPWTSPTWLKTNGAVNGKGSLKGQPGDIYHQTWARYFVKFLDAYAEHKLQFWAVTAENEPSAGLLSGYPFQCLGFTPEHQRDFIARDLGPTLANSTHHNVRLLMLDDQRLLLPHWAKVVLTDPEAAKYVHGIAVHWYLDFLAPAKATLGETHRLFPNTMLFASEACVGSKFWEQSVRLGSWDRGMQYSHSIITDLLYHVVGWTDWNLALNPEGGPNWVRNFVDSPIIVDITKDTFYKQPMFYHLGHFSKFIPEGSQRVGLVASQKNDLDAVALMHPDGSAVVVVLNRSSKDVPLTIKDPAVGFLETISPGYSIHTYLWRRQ

N370E GCase [3] = molecular target: T3, N370E GCase (Homo sapiens, UniProt P04062, N409E); assay: as above; type: biochemical
T3 sequence (P04062 40-536 N409E): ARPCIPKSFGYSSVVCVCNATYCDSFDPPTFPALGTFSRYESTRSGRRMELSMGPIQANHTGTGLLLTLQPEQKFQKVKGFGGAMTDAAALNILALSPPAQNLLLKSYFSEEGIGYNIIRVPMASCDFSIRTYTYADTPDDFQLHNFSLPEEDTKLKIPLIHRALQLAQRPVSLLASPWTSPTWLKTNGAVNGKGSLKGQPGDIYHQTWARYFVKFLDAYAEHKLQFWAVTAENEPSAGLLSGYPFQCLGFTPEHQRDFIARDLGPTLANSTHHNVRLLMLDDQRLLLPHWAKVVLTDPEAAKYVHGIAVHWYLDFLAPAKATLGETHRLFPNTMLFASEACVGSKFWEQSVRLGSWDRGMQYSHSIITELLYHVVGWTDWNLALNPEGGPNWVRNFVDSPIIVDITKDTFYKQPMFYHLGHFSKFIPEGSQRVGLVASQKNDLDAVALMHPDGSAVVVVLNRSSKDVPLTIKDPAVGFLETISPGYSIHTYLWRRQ

N370Q GCase [4] = molecular target: T4, N370Q GCase (Homo sapiens, UniProt P04062, N409Q); assay: as above; type: biochemical
T4 sequence (P04062 40-536 N409Q): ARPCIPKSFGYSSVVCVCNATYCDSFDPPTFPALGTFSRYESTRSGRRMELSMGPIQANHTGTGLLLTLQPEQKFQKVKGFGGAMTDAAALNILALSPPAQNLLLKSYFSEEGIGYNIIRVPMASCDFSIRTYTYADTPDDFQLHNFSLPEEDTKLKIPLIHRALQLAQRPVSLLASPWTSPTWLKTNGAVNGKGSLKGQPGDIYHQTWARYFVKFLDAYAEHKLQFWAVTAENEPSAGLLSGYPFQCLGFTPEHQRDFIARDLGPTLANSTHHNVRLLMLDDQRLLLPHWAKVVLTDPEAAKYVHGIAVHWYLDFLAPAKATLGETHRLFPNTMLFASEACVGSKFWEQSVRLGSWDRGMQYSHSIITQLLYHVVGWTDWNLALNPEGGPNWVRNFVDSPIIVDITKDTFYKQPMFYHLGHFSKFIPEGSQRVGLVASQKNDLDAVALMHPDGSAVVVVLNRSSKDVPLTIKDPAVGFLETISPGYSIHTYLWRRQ

N370 (wild-type) GCase [5] = molecular target: T5, N370 (wild-type) GCase (Homo sapiens, UniProt P04062); assay: as above; type: biochemical
T5 sequence (P04062 40-536): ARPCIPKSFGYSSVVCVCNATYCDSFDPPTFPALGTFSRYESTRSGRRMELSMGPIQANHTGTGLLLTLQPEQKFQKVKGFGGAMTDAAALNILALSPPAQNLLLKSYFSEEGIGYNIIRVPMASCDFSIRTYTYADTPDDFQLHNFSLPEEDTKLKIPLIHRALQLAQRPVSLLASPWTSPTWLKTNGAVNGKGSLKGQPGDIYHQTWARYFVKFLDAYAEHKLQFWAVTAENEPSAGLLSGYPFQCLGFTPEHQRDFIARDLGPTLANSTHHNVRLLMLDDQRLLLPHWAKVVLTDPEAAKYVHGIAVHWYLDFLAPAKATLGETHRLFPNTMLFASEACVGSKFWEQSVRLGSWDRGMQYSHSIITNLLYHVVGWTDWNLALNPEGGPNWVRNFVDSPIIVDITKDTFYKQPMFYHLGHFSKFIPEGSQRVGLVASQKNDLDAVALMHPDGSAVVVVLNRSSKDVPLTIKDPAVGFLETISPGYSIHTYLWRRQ

[6] = tested on: all active enzymes (wild-type and mutant GCases); assay: Km for 4MU-Glc from Lineweaver-Burk plots; type: biochemical, human
E235G GCase = molecular target: T6, E235G GCase (Homo sapiens, UniProt P04062, E274G); assay: E235G hydrolysis of alternative substrates, with or without azide; type: biochemical; settings: for E235G activity toward substrate compared to wild-type enzyme: TC (4.25 mM) as activator, no azide
T6 sequence (P04062 40-536 E274G): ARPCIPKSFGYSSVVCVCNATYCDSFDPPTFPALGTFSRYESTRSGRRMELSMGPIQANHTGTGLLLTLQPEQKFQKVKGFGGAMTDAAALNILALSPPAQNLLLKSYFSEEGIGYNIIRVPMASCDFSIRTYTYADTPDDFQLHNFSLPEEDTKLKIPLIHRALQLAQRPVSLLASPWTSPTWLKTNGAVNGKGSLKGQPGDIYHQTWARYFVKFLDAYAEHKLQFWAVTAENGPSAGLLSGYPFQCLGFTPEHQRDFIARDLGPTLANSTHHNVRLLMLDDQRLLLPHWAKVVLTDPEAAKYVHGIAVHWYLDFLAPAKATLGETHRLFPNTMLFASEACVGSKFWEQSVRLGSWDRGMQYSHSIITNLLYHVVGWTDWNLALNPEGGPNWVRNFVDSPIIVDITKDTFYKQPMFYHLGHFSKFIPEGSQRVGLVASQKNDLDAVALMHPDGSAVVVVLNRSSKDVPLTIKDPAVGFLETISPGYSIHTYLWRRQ

[7] = tested on: N370, N370D, N370E and N370S enzymes; assay: Km for DNPG; type: biochemical, human; settings: same for all the mutants (Fig. 4 legend)
N370 (wild-type) GCase [8] = molecular target: T5, N370 (wild-type) GCase; assay: Enzyme activation by TC or saposin C
N370E GCase [9] = molecular target: T3, N370E GCase; assay: Enzyme activation by TC or saposin C
N370S GCase [10] = molecular target: T1, N370S GCase; assay: Enzyme activation by TC or saposin C
N370Q GCase [11] = molecular target: T4, N370Q GCase; assay: Enzyme activation by TC or saposin C
N370D GCase [12] = molecular target: T2, N370D GCase; assay: Enzyme activation by TC or saposin C
wild-type GCase = wild-type GCase (Homo sapiens, UniProt P04062); settings: azide at 1:4 molar ratio enzyme to azide; DNPG
[13] = TC 0 to 8 mM, Triton X-100 4 mM, pH 5.6
[14] = in combination with 0.5 μM BPS, pH 5.5

O[C@H]1[C@H](O)[C@@H](O)[C@@H]2O[C@@H]2[C@@H]1O (racemic) [Conduritol B Epoxide, conduritol B epoxide] was tested, and the IC50 (N370S GCase [1]) was 251 ± 29 µM, the IC50 (N370D GCase [2]) was 72 ± 2 µM and the IC50 (N370E GCase [3]) was 78 ± 4 µM. For the same molecule, the IC50 (N370Q GCase [4]) was 75 ± 2.5 µM and the IC50 (N370 (wild-type) GCase [5]) was 73 ± 3 µM.

With Cc1cc(=O)oc2cc(O[C@@H]3O[C@H](CO)[C@@H](O)[C@H](O)[C@H]3O)ccc12 [4MU-Glc, 4-methylumbelliferyl-β-D-glucoside] the Km [6] was 2000 ± 500 µM and the “E235G activity toward substrate compared to wild-type enzyme” value (E235G GCase) was “less than 0.05%”.

In the case of O=[N+]([O-])c1ccc(O[C@@H]2O[C@H](CO)[C@@H](O)[C@H](O)[C@H]2O)c([N+](=O)[O-])c1 [DNPG, 2,4-dinitrophenyl-β-D-glucoside], the Km [7] is reported as 108 ± 17 µM and the “E235G activity toward substrate compared to wild-type enzyme” value (E235G GCase) is reported as ~ 2%.

For C[C@H](CCC(=O)NCCS(=O)(=O)O)[C@H]1CC[C@H]2[C@@H]3[C@H](O)C[C@@H]4C[C@H](O)CC[C@]4(C)[C@H]3C[C@H](O)[C@]12C [TC, Sodium taurocholate], the “fold activation by TC” value (N370 (wild-type) GCase [8]; wild-type, TC 0 to 8 mM, Triton X-100 4 mM, pH 5.6) was ~ 25 fold, the “fold activation by TC” value (N370E GCase [9]; [13]) was ~ 8 fold and the “fold activation by TC” value (N370S GCase [10]; TC ≥ 4 mM, Triton X-100 4 mM, pH 5.6) was ~ 35 fold. The “fold activation by TC” value (N370Q GCase [11]; [13]) was ~ 1.5 fold and the “fold activation by TC” value (N370D GCase [12]; [13]) was ~ 22 fold.

With [N-]=[N+]=[N-].[Na+] [azide, sodium azide] the “effect of azide on wild-type enzyme activity” value (wild-type GCase) was “no effect”, the “hydrolytic rate of 2,4-DNP-β-glucose by E235G relative to wild-type” value (E235G GCase; 10 μM azide (Fig. 6A)) was 95% and the “hydrolytic rate of DNPG by E235G relative to wild-type enzyme” value (E235G GCase; 1:4 molar ratio of enzyme to azide) was ~ 90%.

With O=[N+]([O-])c1ccccc1O[C@@H]1O[C@H](CO)[C@H](O)[C@H](O)[C@H]1O [o-NPG, o-nitrophenyl-β-glucose] the “E235G activity toward substrate compared to wild-type enzyme” value (E235G GCase) was “less than 0.05%”.

O=[N+]([O-])c1ccc(O[C@@H]2O[C@H](CO)[C@H](O)[C@H](O)[C@H]2O)cc1 [p-NPG, p-nitrophenyl-β-glucose] was tested, and the “E235G activity toward substrate compared to wild-type enzyme” value (E235G GCase) was “less than 0.05%”.

B1: saposin C: protein cofactor of GCase for optimal hydrolytic activity (protein, UniProt P07602 311-390, looked up)
Saposin-C: SDVYCEVCEFLVKEVTKLIDNNKTEKEILDAFDKMCSKLPKSLSEECQEVVDTYGSSILSILLEEVSPELVCSMLHLCSG
modifications: Saposin-C
With B1 the “fold enhancement by saposin C” value (N370 (wild-type) GCase [8]; N370 (WT), in combination with 0.5 μM BPS, pH 5.5) was ~ 3.5 fold, the “fold enhancement by saposin C” value (N370E GCase [9]; [14]) was 1.8 fold and the “fold enhancement by saposin C” value (N370S GCase [10]; [14]) was ~ 2.4 fold. The “enhancement by saposin C” value (N370Q GCase [11]; [14]) was “no effect” and the “fold enhancement by saposin C” value (N370D GCase [12]; [14]) was 1.8 fold.
